Experimental data published in article PMC12027554, “Inhibition of ABCG2 by SCO-101 Enhances Chemotherapy Efficacy in Cancer” (International Journal of Molecular Sciences, 2025).

Tests used:
HT29PAR cells [1] = assay: Cell viability assay (MTT / CCK-8), drug-sensitive HT29; assay type: cell-based, human
Procedure: (§1) Cells were seeded at a density of 0.2–1 × 10^4 cells/well into 96-well plates. One day after seeding, treatments were performed in triplicate for 72 h, or as otherwise indicated in the relevant panel/figure legend and kept at 37 °C/5% CO2. Growth medium alone (“untreated” cells) or DMSO was used as a control.
(§2) For MTT assays, media were replaced at the final timepoint with 100 μL of 1:10 MTT reagent (0.5 mg/mL in PBS) diluted in growth medium, and plates were incubated for 3 h. A total of 100 μL/well of stop buffer (50 g Sodium Dodecyl Sulfate, 245 mL ddH2O, 5 mL 1N HCl) was added and plates incubated for 24 h to let colored formazan crystals develop. Optical densities (ODs) were measured with a PowerWave^TM Microplate spectrophotometer (BioTek, Winooski, VT, USA) at 570 nm and 670 nm (background).
(§3) For CCK-8 assays, 100 μL of 1:10 CCK-8 reagent (pevonedistat-treated HT29 cells) diluted in medium was added to each well and cells incubated for 1–2 h at 37 °C. OD values were measured at 450 nm with a VersaMax microplate spectrophotometer (Molecular Devices, San Jose, CA, USA).
(§4) Background values were subtracted prior to further analysis. The percentage of cell viability was expressed as relative values versus untreated cells as determined by the various assays. EC50/IC50 values were calculated using GraphPad Prism (v10.4.1) and the in-built non-linear regression [log (inhibitor) vs. response—variable slope (four parameters)] calculation. For determination of synergy scores, the online tool SynergyFinder+ (https://synergyfinder.org access date 15 February 2025) was employed following 4 × 4- or 6 × 6-matrix dose-escalation cell viability experiments. Doses of drugs are indicated in the relevant figure legends and ranges have been chosen based on the response of cells to single-drug dose-dependent experiments. Synergy scores were calculated using the ZIP model, which takes the advantages of both the Loewe additivity and the Bliss independence models, aiming at a systematic assessment of various types of drug interaction patterns that may arise in a high-throughput drug combination screening.

HT29SN-38 cells [2] = assay: Cell viability assay (MTT / CCK-8), SN-38-resistant HT29; assay type: cell-based, human
Procedure: as §1, §2, §3, §4

HL-60PAR cells = assay: Cell viability assay, HL-60 parental; assay type: cell-based; conditions: Homo sapiens, 96 h
Procedure: as §1, §4

HL-60ABCG2 cells = assay: Cell viability assay, ABCG2-expressing HL-60; assay type: cell-based; conditions: Homo sapiens, 96 h
Procedure: as §1, §4

HT29SN-38 cells [3] = assay: Cellular dye efflux assay (Hoechst 33342), resistant cells; assay type: cell-based, human; conditions: SCO-101 20 µM, Ko-143 1 µM, PSC833 1 µM
Procedure: (§5) Twenty-four hours before the experiments, cells were seeded into 96-well Nunclon^TM plates at a density of 6000 (HT29), 7000 (PANC-1) or 8000 (LoVo) cells/well. The following day, cells were treated in triplicate with the relevant drugs at the indicated concentrations for 1 h. Next, 5 μg/mL Hoechst 33342 was added to the wells, and plates incubated at 37 °C for 30 min^−1 h. Cells were washed with cold PBS, treatments re-added and plates re-incubated at 37 °C for 30 min to 1 h. Plates were analyzed using a Celigo® (Nexcelom Bioscience, Lawrence, MA, USA) imaging cytometer. Data are expressed as percentages of fluorescence intensity, calculated through the following formula: % fluorescence intensity=Mean fluorescence intensity of sample/Mean fluorescence intensity of parental control×100
(§6) Fluorescent images were captured with an Olympus® IX71/TH4-200 microscope equipped with an Olympus® DP72 camera (Shinjuku, Tokyo, Japan), and cells were seeded at a 1.5 × 10^5 cells/well density and treated as described above.

HT29PAR cells [4] = assay: Cellular dye efflux assay (Hoechst 33342), parental cells; assay type: cell-based, human; conditions: SCO-101 20 µM, Ko-143 1 µM
Procedure: as §5, §6

HT29SN-38 cells [5] = assay: 3H-SN-38 uptake in cell monolayers; assay type: cell-based, human; conditions: HT29SN-38 monolayers; for cellular accumulation of 3H-SN-38: SCO-101 25 µM, Ko-143 0.5 µM, ZSQ 0.5 µM, vs control (HBSS)
Procedure: Cells were seeded at a density of 1.8 × 10^4 cells/well in 96-well plates and sub-cultured for 48 h. Drugs were dissolved in HBSS transport buffer (HBSS, 0.05% BSA, 10 mM HEPES, pH 7.4) at different concentrations. All treatments were investigated in technical triplicates. On the day of the experiments, the culture medium was exchanged with 100 μL transport buffer and cells incubated for 15 min at 37 °C. Next, the blank transport buffer was exchanged with 50 μL transport buffer containing the different compounds (2X of final concentrations) and incubated for an additional 15 min at 37 °C. The uptake experiment was started by adding 50 μL of 2 μCi/mL ^3H-SN38 and stopped after 15 min of incubation at 37 °C by removing the transport buffer from all wells. Cell monolayers were washed twice by adding/removing ice-cold transport buffer and lysed for 15 min at RT in 100 μL 0.1% TritonX-100. Cell lysates were transferred to scintillation vials containing 2 mL of scintillation fluid (Ultima Gold, PerkinElmer). Each well was washed with 100 μL purified water (milliQ), which was also transferred to respective scintillation vials. The radioactivity in each scintillation vial was measured by means of scintillation counting (Tri-Carb 2910 TR, PerkinElmer, Waltham, MA, USA).

NS(=O)(=O)OC[C@@H]1C[C@@H](n2ccc3c(N[C@H]4CCc5ccccc54)ncnc32)C[C@@H]1O [pevonedistat]
IC50 (HT29PAR cells [1]; Homo sapiens, HT-29, 72 h): 130 nM
IC50 (HT29SN-38 cells [2]; Homo sapiens, HT-29, 72 h): 3230 nM
IC50 (HL-60PAR cells): 5.4 nM
IC50 (HL-60ABCG2 cells): > 1000 nM

COc1ccc2c3c([nH]c2c1)[C@H](CC(C)C)N1C(=O)[C@H](CCC(=O)OC(C)(C)C)NC(=O)[C@@H]1C3 [Ko-143]
H33342 dye accumulation (HT29SN-38 cells [3]): restored
H33342 dye accumulation (HT29PAR cells [4]): No change
cellular accumulation of 3H-SN-38 (HT29SN-38 cells [5]): increased
EC50 (HT29SN-38 cells [5]; read-out: EC50, 3H-SN-38 uptake (regarded as IC50 of ABCG2 inhibition)): 70 nM

C/C=C/C[C@@H](C)C(=O)[C@H]1C(=O)N[C@@H](C(C)C)C(=O)N(C)CC(=O)N(C)[C@@H](CC(C)C)C(=O)N[C@@H](C(C)C)C(=O)N(C)[C@@H](CC(C)C)C(=O)N[C@@H](C)C(=O)N[C@H](C)C(=O)N(C)[C@@H](CC(C)C)C(=O)N(C)[C@@H](CC(C)C)C(=O)N(C)[C@@H](C(C)C)C(=O)N1C [PSC833]
H33342 dye accumulation (HT29SN-38 cells [3]): No change

O=C1c2c(O)ccc(O)c2C(=O)c2c(NCCNCCO)ccc(NCCNCCO)c21 [mitoxantrone]
IC50 (HL-60PAR cells): 40 nM
IC50 (HL-60ABCG2 cells): 580 nM

CC[C@@]1(O)C(=O)OCc2c1cc1n(c2=O)Cc2cc3c(CN(C)C)c(O)ccc3nc2-1 [topotecan]
IC50 (HT29PAR cells [1]; Homo sapiens, HT-29, 72 h): 60 nM
IC50 (HT29SN-38 cells [2]; Homo sapiens, HT-29, 72 h): 1360 nM
IC50 (HL-60ABCG2 cells): > 1000 nM

CCc1c2c(nc3ccc(O)cc13)-c1cc3c(c(=O)n1C2)COC(=O)[C@]3(O)CC [SN-38, reference compound]
IC50 (HT29PAR cells [1]; 72 h): 160 nM
IC50 (HT29SN-38 cells [2]; 72 h): 7290 nM
cell viability after 24 h single treatment and drug washout (HT29SN-38 cells [2]; SCO-101 15 μM or SN-38 0.5 μM alone, washout 48 h or 120 h): did not affect cell viability

O[C@@H](COc1cccc2ncccc12)CN1CCN([C@@H]2c3ccccc3[C@@H]3[C@H](c4ccccc42)C3(F)F)CC1 [ZSQ]
cellular accumulation of 3H-SN-38 (HT29SN-38 cells [5]): did not alter
